Test [1] addresses T1, GPR1 (Homo sapiens, UniProt P46091).
T1 sequence (P46091 1-355): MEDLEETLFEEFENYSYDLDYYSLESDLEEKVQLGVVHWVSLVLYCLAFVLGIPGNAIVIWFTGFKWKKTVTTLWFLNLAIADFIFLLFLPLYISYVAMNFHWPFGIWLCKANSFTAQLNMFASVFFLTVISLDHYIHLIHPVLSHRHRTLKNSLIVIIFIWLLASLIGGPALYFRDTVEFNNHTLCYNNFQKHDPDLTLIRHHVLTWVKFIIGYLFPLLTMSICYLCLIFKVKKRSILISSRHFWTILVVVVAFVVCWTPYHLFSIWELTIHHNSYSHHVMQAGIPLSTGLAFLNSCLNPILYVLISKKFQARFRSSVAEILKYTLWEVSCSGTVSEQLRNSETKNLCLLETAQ
Nature of the test: β-arrestin recruitment (PathHunter). Format: cell-based. Particulars: receptor GPR1, mean, SEM and n (2-3); for EC50: read-out: b-arrestin recruitment assays (PathHunter) pEC50 (converted). The method, then:
PathHunter eXpress Assays (DiscoverX) were performed in 384-well format according to the manufacturer’s recommendations. GPR1 cells were incubated with peptides for 90 min and luminescence measured using an EnSpire 2300 Multimode plate reader (PerkinElmer).

Test [2] has as its target T1, GPR1. Nature of the test: β-arrestin recruitment (Tango), validation. The conditions noted are these: receptor GPR1, mean, SEM and n (2-3); for EC50: read-out: b-arrestin recruitment assays (Tango) pEC50 (converted). Also on record: host or cells: HTLA cells (HEK293-derived). Format: cell-based.

Residues, ends and D or L forms follow the SMILES beside them. No end group written: not given here.

With `CC[C@H](C)[C@H](NC(=O)[C@H](CCCNC(=N)N)NC(=O)[C@H](Cc1c[nH]cn1)NC(=O)[C@H](CO)NC(=O)[C@@H]1CCCN1C(=O)[C@H](CC(=O)O)NC(=O)[C@H](CC(C)C)NC(=O)[C@H](CC(N)=O)NC(=O)[C@H](CCC(N)=O)NC(=O)[C@H](CC(C)C)NC(=O)[C@H](CC(N)=O)NC(=O)[C@H](CCCCN)NC(=O)[C@@H](NC(=O)[C@@H](NC(=O)[C@H](CO)NC(=O)[C@H](CCSC)NC(=O)[C@H](CCCNC(=N)N)NC(=O)CNC(=O)[C@H](CO)NC(=O)[C@@H]1CCCN1C(=O)[C@H](C)NC(=O)[C@@H](N)CCCCN)[C@@H](C)CC)C(C)C)C(=O)N[C@@H](CO)C(=O)N[C@@H](CC(=O)O)C(=O)N[C@@H](CCCNC(=N)N)C(=O)N[C@@H](CC(=O)O)C(=O)N[C@@H](Cc1ccc(O)cc1)C(=O)N[C@@H](CCSC)C(=O)NCC(=O)N[C@@H](Cc1c[nH]c2ccccc12)C(=O)N[C@@H](CCSC)C(=O)N[C@@H](CC(=O)O)C(=O)N[C@@H](Cc1ccccc1)C(N)=O` [194 resynthesized] (H-KAPSGRMSIVKNLQNLDPSHRISDRDYMGWMDF-NH2), the results for the EC50 at GPR1 [1] and on GPR1 [2] were 27.5 nM and 6610 nM, respectively.

On to `CSCC[C@H](NC(=O)[C@@H](N)Cc1c[nH]c2ccccc12)C(=O)N[C@@H](CC(=O)O)C(=O)N[C@@H](Cc1ccccc1)C(N)=O` [194.2 (Phoenix)], for which the EC50 at GPR1 [1] is 0.0132 nM; at GPR1 [2] it was 39.8 nM.

For the compound `CC(C)C[C@H](NC(=O)[C@H](CCCNC(=N)N)NC(=O)[C@H](CC(=O)O)NC(=O)[C@H](CC(C)C)NC(=O)[C@@H]1CCCN1C(=O)[C@H](CO)NC(=O)CNC(=O)[C@H](Cc1ccccc1)NC(=O)CNC(=O)[C@H](CO)NC(=O)[C@H](Cc1ccccc1)NC(=O)[C@@H](N)CO)C(=O)N[C@@H](CO)C(=O)N[C@@H](C)C(=O)NCC(=O)N[C@@H](CO)C(=O)N[C@H](C(=O)N[C@@H](CC(=O)O)C(=O)N[C@@H](Cc1c[nH]cn1)C(=O)N[C@@H](CCCCN)C(N)=O)C(C)C` [Peptide 141.1] (H-SFSGFGSPLDRLSAGSVDHK-NH2), the EC50 was 14100 nM on GPR1 [1] and 14500 nM on GPR1 [2].

Regarding `CC(C)C[C@H](NC(=O)[C@H](CCCNC(=N)N)NC(=O)[C@H](CC(=O)O)NC(=O)[C@H](CC(C)C)NC(=O)[C@@H]1CCCN1C(=O)[C@H](CO)NC(=O)CNC(=O)[C@H](Cc1ccccc1)NC(=O)CNC(=O)[C@H](CO)NC(=O)[C@H](Cc1ccccc1)NC(=O)[C@H](CO)NC(=O)[C@H](CCCNC(=N)N)NC(=O)[C@@H](N)CCCCN)C(=O)N[C@@H](CO)C(=O)N[C@@H](C)C(=O)NCC(=O)N[C@@H](CO)C(=O)N[C@H](C(=O)N[C@@H](CC(=O)O)C(=O)N[C@@H](Cc1c[nH]cn1)C(=O)N[C@@H](CCCCN)C(=O)NCC(=O)N[C@@H](CCCCN)C(=O)N[C@@H](CCC(N)=O)C(=O)O)C(C)C` [Peptide 141.2] (H-KRSFSGFGSPLDRLSAGSVDHKGKQ-OH), the results for the EC50 on GPR1 [1] and on GPR1 [2] were 1170 nM and 2630 nM, respectively.

As to `CC(C)C[C@H](NC(=O)[C@H](CCCNC(=N)N)NC(=O)[C@H](CC(=O)O)NC(=O)[C@H](CC(C)C)NC(=O)[C@@H]1CCCN1C(=O)[C@H](CO)NC(=O)CNC(=O)[C@H](Cc1ccccc1)NC(=O)CNC(=O)[C@H](CO)NC(=O)[C@H](Cc1ccccc1)NC(=O)[C@H](CO)NC(=O)[C@H](CCCNC(=N)N)NC(=O)[C@@H](N)CCCCN)C(=O)N[C@@H](CO)C(=O)N[C@@H](C)C(=O)NCC(=O)N[C@@H](CO)C(=O)N[C@H](C(=O)N[C@@H](CC(=O)O)C(=O)N[C@@H](Cc1c[nH]cn1)C(=O)N[C@@H](CCCCN)C(=O)NCC(=O)N[C@@H](CCCCN)C(=O)N[C@@H](CCC(N)=O)C(=O)N[C@@H](CCCNC(=N)N)C(=O)N[C@@H](CCCCN)C(=O)N[C@H](C(=O)N[C@H](C(=O)N[C@@H](CC(=O)O)C(=O)N[C@@H](Cc1c[nH]cn1)C(=O)N1CCC[C@H]1C(=O)O)C(C)C)C(C)C)C(C)C` [Peptide 141.3] (H-KRSFSGFGSPLDRLSAGSVDHKGKQRKVVDHP-OH), the EC50 is 550 nM on GPR1 [1] and 2630 nM on GPR1 [2].

For the compound `CC(C)C[C@H](NC(=O)[C@H](CCCNC(=N)N)NC(=O)[C@H](CC(=O)O)NC(=O)[C@H](CC(C)C)NC(=O)[C@@H]1CCCN1C(=O)[C@H](CO)NC(=O)CNC(=O)[C@H](Cc1ccccc1)NC(=O)CNC(=O)[C@H](CO)NC(=O)[C@H](Cc1ccccc1)NC(=O)[C@@H](N)CO)C(=O)N[C@@H](CO)C(=O)N[C@@H](C)C(=O)NCC(=O)N[C@@H](CO)C(=O)N[C@H](C(=O)N[C@@H](CC(=O)O)C(=O)N[C@@H](Cc1c[nH]cn1)C(=O)N[C@@H](CCCCN)C(=O)NCC(=O)N[C@@H](CCCCN)C(=O)N[C@@H](CCC(N)=O)C(=O)O)C(C)C` [Peptide 141.5] (H-SFSGFGSPLDRLSAGSVDHKGKQ-OH), on GPR1 [1], the “b-arrestin recruitment assays (PathHunter) Emax (fold change)” value turned out to be 6.2 fold change and the EC50 was 20900 nM. Besides, at GPR1 [2], the “b-arrestin recruitment assays (Tango) Emax (fold change)” value is on record as 13.6 fold change and the EC50 is 16200 nM.

For the compound `CC(C)C[C@H](NC(=O)[C@H](CCCNC(=N)N)NC(=O)[C@H](CC(=O)O)NC(=O)[C@H](CC(C)C)NC(=O)[C@@H]1CCCN1C(=O)[C@H](CO)NC(=O)CNC(=O)[C@H](Cc1ccccc1)NC(=O)CNC(=O)[C@H](CO)NC(=O)[C@H](Cc1ccccc1)NC(=O)[C@@H](N)CO)C(=O)N[C@@H](CO)C(=O)N[C@@H](C)C(=O)NCC(=O)N[C@@H](CO)C(=O)N[C@H](C(=O)N[C@@H](CC(=O)O)C(=O)N[C@@H](Cc1c[nH]cn1)C(=O)N[C@@H](CCCCN)C(=O)NCC(=O)N[C@@H](CCCCN)C(=O)N[C@@H](CCC(N)=O)C(=O)N[C@@H](CCCNC(=N)N)C(=O)N[C@@H](CCCCN)C(=O)N[C@H](C(=O)N[C@H](C(=O)N[C@@H](CC(=O)O)C(=O)N[C@@H](Cc1c[nH]cn1)C(=O)N1CCC[C@H]1C(=O)O)C(C)C)C(C)C)C(C)C` [Peptide 141.6] (H-SFSGFGSPLDRLSAGSVDHKGKQRKVVDHP-OH), the values for the EC50 on GPR1 [1] and at GPR1 [2] were 3160 nM and 16600 nM, respectively.

As for `CSCC[C@H](NC(=O)[C@H](Cc1ccc(O)cc1)NC(=O)[C@@H](N)CC(=O)O)C(=O)NCC(=O)N[C@@H](Cc1c[nH]c2ccccc12)C(=O)N[C@@H](CCSC)C(=O)N[C@@H](CC(=O)O)C(=O)N[C@@H](Cc1ccccc1)C(N)=O` [Peptide 194.1], the EC50 was 1.45 nM on GPR1 [1] and 8510 nM on GPR1 [2].

For the compound `C[C@H](NC(=O)[C@@H](N)CCCCN)C(=O)N1CCC[C@H]1C(=O)N[C@@H](CO)C(N)=O` [Peptide 194.3] (H-KAPS-NH2), the EC50 is 0.049 nM on GPR1 [1] and 0.00191 nM on GPR1 [2].

Consider `CC[C@H](C)[C@H](NC(=O)[C@H](CCCNC(=N)N)NC(=O)[C@H](Cc1c[nH]cn1)NC(=O)[C@H](CO)NC(=O)[C@@H]1CCCN1C(=O)[C@H](CC(=O)O)NC(=O)[C@H](CC(C)C)NC(=O)[C@H](CC(N)=O)NC(=O)[C@H](CCC(N)=O)NC(=O)[C@H](CC(C)C)NC(=O)[C@H](CC(N)=O)NC(=O)[C@H](CCCCN)NC(=O)[C@@H](NC(=O)[C@@H](NC(=O)[C@H](CO)NC(=O)[C@H](CCSC)NC(=O)[C@H](CCCNC(=N)N)NC(=O)CNC(=O)[C@H](CO)NC(=O)[C@@H]1CCCN1C(=O)[C@H](C)NC(=O)[C@@H](N)CCCCN)[C@@H](C)CC)C(C)C)C(=O)N[C@@H](CO)C(=O)N[C@@H](CC(=O)O)C(=O)N[C@@H](CCCNC(=N)N)C(=O)N[C@@H](CC(=O)O)C(=O)N[C@@H](Cc1ccc(O)cc1)C(=O)N[C@@H](CCSC)C(=O)NCC(=O)O` [Peptide 194.4] (H-KAPSGRMSIVKNLQNLDPSHRISDRDYMG-OH), for which the EC50 is 0.224 nM at GPR1 [1] and 93.3 nM on GPR1 [2].

In the case of `CC[C@H](C)[C@H](NC(=O)[C@H](CCCNC(=N)N)NC(=O)[C@H](Cc1c[nH]cn1)NC(=O)[C@H](CO)NC(=O)[C@@H]1CCCN1C(=O)[C@H](CC(=O)O)NC(=O)[C@H](CC(C)C)NC(=O)[C@H](CC(N)=O)NC(=O)[C@H](CCC(N)=O)NC(=O)[C@H](CC(C)C)NC(=O)[C@H](CC(N)=O)NC(=O)[C@H](CCCCN)NC(=O)[C@@H](NC(=O)[C@@H](NC(=O)[C@H](CO)NC(=O)[C@H](CCSC)NC(=O)[C@H](CCCNC(=N)N)NC(=O)CNC(=O)[C@H](CO)NC(=O)[C@@H]1CCCN1C(=O)[C@H](C)NC(=O)[C@@H](N)CCCCN)[C@@H](C)CC)C(C)C)C(=O)N[C@@H](CO)C(=O)N[C@@H](CC(=O)O)C(=O)N[C@@H](CCCNC(=N)N)C(=O)O` [Peptide 194.5] (H-KAPSGRMSIVKNLQNLDPSHRISDR-OH), the EC50 on GPR1 [1] was 0.135 nM; on GPR1 [2], 22.9 nM.

As for “KAPSGRMSIVKNLQNLDPSHRISDRDYMGWMDFGRRSAEEYEYPS [Peptide 194.6]”, on GPR1 [1], the “b-arrestin recruitment assays (PathHunter) Emax (fold change)” value came to 4.0 fold change and the EC50 is 28200 nM. For the same compound, at GPR1 [2], the “b-arrestin recruitment assays (Tango) Emax (fold change)” value came to 2.0 fold change and the EC50 is 75.9 nM.

“KRSFSGFGSPLDRLSAGSVDHKGKQRKVVDHPKRRFGIPMDRI [Peptide 141.4]”: the EC50 was 39.8 nM at GPR1 [1] and 10200 nM on GPR1 [2].

Turning to “SFSGFGSPLDRLSAGSVDHKGKQRKVVDHPKRRFGIPMDRI-NH2 [Peptide 141.7]”, the EC50 at GPR1 [1] was 575 nM; at GPR1 [2] it was 26900 nM.

(Values after PMC6838683, “Discovery of Human Signaling Systems: Pairing Peptides to G Protein-Coupled Receptors” (Cell, 2019).)
